Results from patent US9067914B1, “Tropomyosin-related kinase (TRK) inhibitors” (Genzyme Corporation, priority 2013, dated 2015).

Columns and labels:
TrkA = TrkA (Homo sapiens (Human), UniProt P04629); assay: TrkA activity, off-chip mobility shift assay (LabChip 3000); format: biochemical; settings: 55 μM ATP (ATP Km); n/d = none detected
TrkB = TrkB (Homo sapiens (Human), UniProt Q16620); assay: TrkB activity, off-chip mobility shift assay (LabChip 3000); format: biochemical; settings: 70 μM ATP (ATP Km); n/d = none detected
[1] = test system: MIA induced osteoarthritis in male Wistar rats; assay: Monosodium iodoacetate (MIA) induced osteoarthritis, weight bearing; format: in vivo, rat
From the text: Male Wistar rats were acclimated to the testing facility for 5 days. The rats were individually housed in micro-isolator shoe-box polycarbonate cages with cob bedding and water bottles. Dry pelleted food of known composition and nutritional components was provided ad libitum
Animals were randomized by treatment type using an online random number generator. Each treatment group was assigned a number, entered into the random number generator, recorded then translated back to the associated treatment. All injections were given in the left leg unless the treatment indicated “Contralateral” in which case the injection was given in the right leg. Both legs were shaved on all animals at the time of the treatment injections to blind the test administrator.
The rats were weighed the day prior to injection with monosodium iodoacetate (MIA), the agent used to induce osteoarthritis in the animals. The day of injection, rats from groups 2-8 received a subcutaneous (SC) dose of buprenorphine at least one hour prior to induction. […] Naïve animals were then placed in recovery. All other animals received an injection of MIA. In animals receiving MIA, the hind leg was flexed and an injection of MIA (25 μL) was injected into the intra-articular space using a 27 gauge ½ inch needle. Standard postoperative care was performed (twice daily for 48 hours).
On Day 8 the test article was administered as described above. On Days −1, 7, 14, 21, 28, and 35 post-induction, weight bearing was assessed. A weight bearing scale was utilized using a plexiglass chamber to assess the amount of weight distributed in each hind limb. The animals were acclimated to the chamber for at least 5 minutes prior to testing and the weight distribution was recorded 5 times.
The animals were terminated at day 36. Both stifles were collected from each animal; the skin was removed from the joint and the patella was removed while leaving as much of the fat pad intact with the joint. The stifle was placed in the appropriate cassette with rolled gauze to secure the stifle in the cassette and then placed into 4% Paraformaldehyde. These samples were examined histologically.

[2] = test system: PGPS knee arthritis in male Lewis rats; assay: Reactivated peptidoglycan-polysaccharide (PGPS) knee arthritis; format: in vivo, rat
From the text: Male Lewis rats were acclimated to the testing facility for 7 days. The rats were housed in 5 per cage in shoe-box polycarbonate cages with wire tops, wood chip bedding and suspended food and water bottles.
On day −21, the male Lewis rats were randomized into treatment groups by body weight. The rats were anesthetized and injected with peptidoglycan-polysaccharide (PGPS) into the right knee to induce PGPS arthritis. Arthritis was reactivated on days 0 and 14 by an IV tail injection of PGPS.
The rats were weighed at baseline on days 0, 4, 14 and 18. Knee thickness was measured by caliper at baseline and on days 0, 2, 4, 14, 16 and 18. Gait analysis occurred on days 0-4 and 14-18, with video recording of selected animals on days 3 and 17. Gait analysis was performed by applying ink to the ventral surface of the foot and documenting weight bearing during movement across paper.
The animals were terminated at day 18. Right knees were removed, trimmed of extraneous tissue, and collected into 10% neutral buffered formalin. After two days in the formalin buffer and three days in 10% formic acid decalcifier, the knees were cut into two approximately equal halves in the frontal plane and processed for paraffin embedding and stained with T.Blue. Histological examinations were subsequently performed for bone resorption, inflammation, pannus and cartilage damage.
Body weights, gait deficiency and caliper measurements were analyzed using a one-way analysis of variance (1-way ANOVA) with Dunnett's multiple comparison post-test. Gait scores were analyzed using a Kruskal-Wallis test (non-parametric ANOVA) with Dunn's multiple comparison post-test. Histopathology scores were analyzed using a Kruskal-Wallis test (non-parametric ANOVA) with Dunn's multiple comparison post-test.

[3] = intra-articular on day -7 (Triamcinolone 0.06 mg; test compound 1 mg)
[4] = intra-articular on day -7, 1 mg
[5] = right knee, day 18, intra-articular on day -7 (Triamcinolone 0.06 mg; test compound 1 mg)

TrkA, sequence (P04629 33-796): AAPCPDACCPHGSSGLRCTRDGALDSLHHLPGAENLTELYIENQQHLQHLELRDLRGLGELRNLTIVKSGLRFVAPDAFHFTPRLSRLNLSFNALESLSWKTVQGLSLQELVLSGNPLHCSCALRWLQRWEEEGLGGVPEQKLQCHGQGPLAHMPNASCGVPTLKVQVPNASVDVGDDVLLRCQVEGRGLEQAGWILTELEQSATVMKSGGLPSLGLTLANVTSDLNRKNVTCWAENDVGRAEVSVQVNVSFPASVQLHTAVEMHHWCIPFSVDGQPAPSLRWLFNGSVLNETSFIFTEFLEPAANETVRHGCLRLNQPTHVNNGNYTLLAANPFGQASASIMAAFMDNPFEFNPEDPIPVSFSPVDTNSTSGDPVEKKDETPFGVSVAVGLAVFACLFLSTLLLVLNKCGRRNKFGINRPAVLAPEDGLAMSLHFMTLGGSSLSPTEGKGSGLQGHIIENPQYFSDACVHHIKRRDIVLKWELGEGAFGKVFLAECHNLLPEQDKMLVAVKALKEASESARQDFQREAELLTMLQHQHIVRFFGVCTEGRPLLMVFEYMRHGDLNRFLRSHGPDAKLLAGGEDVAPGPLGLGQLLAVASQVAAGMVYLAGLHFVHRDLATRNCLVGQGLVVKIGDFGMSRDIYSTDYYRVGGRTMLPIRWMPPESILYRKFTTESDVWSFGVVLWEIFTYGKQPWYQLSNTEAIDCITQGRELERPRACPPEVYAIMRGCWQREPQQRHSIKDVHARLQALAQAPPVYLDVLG
TrkB, sequence (Q16620 32-822): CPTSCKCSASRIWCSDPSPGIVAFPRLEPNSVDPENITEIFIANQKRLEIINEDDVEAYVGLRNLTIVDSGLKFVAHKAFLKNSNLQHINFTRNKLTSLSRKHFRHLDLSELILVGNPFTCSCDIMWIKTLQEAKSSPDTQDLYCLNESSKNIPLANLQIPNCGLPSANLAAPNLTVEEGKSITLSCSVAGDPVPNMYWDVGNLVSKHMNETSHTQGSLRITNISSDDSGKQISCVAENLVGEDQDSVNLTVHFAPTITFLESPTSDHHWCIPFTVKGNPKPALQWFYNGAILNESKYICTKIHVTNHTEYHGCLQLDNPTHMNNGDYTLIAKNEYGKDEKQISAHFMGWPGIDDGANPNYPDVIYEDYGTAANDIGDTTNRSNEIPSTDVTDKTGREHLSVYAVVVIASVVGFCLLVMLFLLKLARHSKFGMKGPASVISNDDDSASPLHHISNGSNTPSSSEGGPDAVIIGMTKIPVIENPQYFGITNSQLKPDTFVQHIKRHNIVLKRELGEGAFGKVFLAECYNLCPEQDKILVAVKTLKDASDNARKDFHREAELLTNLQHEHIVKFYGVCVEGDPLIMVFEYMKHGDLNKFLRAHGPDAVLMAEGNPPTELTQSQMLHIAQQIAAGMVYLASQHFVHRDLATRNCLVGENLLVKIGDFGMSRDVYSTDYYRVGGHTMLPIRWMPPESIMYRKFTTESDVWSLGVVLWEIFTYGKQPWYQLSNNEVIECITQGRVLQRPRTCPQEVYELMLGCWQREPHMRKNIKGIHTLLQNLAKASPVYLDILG

IC50 (TrkA): 0.3 nM
IC50 (TrkB): 0.1 nM
SMILES: COc1ccc(COc2ccc(Cn3c(N)nc4cc(-c5cnn(C)c5)cnc43)cc2OC)cc1 [Ex. 3-15, 3-(3-Methoxy-4-((4-methoxybenzyl)oxy)benzyl)-6-(1-methyl-1H-pyrazol-4-yl)-3H-imidazo[4,5-b]pyridin-2-amine]
Efficacy (weight bearing) ([1]; 10 μg Contralateral injection on Day 8): efficacy at 3 and 4 weeks following administration
Efficacy (weight bearing) ([1]; 10 μg Ipsilateral injection on Day 8): efficacy was observed at 2 through 4 weeks following administration
Efficacy (weight bearing) ([1]; 30 μg Contralateral injection on Day 8): efficacy at only the 3 week timepoint
Efficacy (weight bearing) ([1]; 30 μg Ipsilateral injection on Day 8): effective throughout the four weeks following administration
Systemic pain relief (weight bearing) ([1]; 100 μg Contralateral injection on Day 8, 1-4 weeks): did not show systemic pain relief at any timepoint
Efficacy (weight bearing) ([1]; 100 μg Ipsilateral injection on Day 8): effective throughout the four weeks following administration
Comparison with MIA/LRS at day 35 (p<0.05) ([1]; Ipsilateral 30 μg): MIA/LRS was significantly worse
Comparison with MIA/LRS at day 35 (p<0.05) ([1]; Ipsilateral 100 μg): MIA/LRS was significantly worse
Body weight results ([1]; male Wistar rats, intra-articular on Day 8): No adverse observations
Histopathology of the knee joint ([1]; stifles collected at day 36): no adverse changes
Knee caliper measurements [2, 3]: significantly reduced on day 14
Reduction of knee caliper AUC [2, 3]: generally unaffected
Reduction of gait scores and deficiency AUC, first reactivation [2, 4]: 92-93%
Reduction of gait scores and deficiency AUC, second reactivation [2, 4]: 85-86%
Reduction of summed AUC for gait deficiency [2, 4]: 84%
Gait scores and deficiency, first reactivation ([2]; male Lewis rats, intra-articular on day -7 (Triamcinolone 0.06 mg; test compound 1 mg), days 1-4): significant reductions
Gait scores and deficiency, second reactivation: significant reduction ([2]; male Lewis rats, intra-articular on day -7 (Triamcinolone 0.06 mg; test compound 1 mg), days 14-18): Scores were significantly reduced throughout the second reactivation, and reductions in deficiency were significant on days 15, 17, and 18
Histopathology: reduction in summed scores [2, 5]: 70%
Histopathology: reductions in all parameters (bone resorption, inflammation, pannus, cartilage damage) [2, 5]: 49-94%
